In paper PMC9820430, “New Affordable Methods for Large-Scale Isolation of Major Olive Secoiridoids and Systematic Comparative Study of Their Antiproliferative/Cytotoxic Effect on Multiple Cancer Cell Lines of Different Cancer Origins” (International Journal of Molecular Sciences, 2022):
Like-named read-outs stand apart in the source and are kept apart here.

Columns and labels:
[1] = test system: NHDF; assay: ATP-based luminescence cell viability assay (ViaLight), 72 h; details: NHDF (normal human dermal fibroblasts); 72 h treatment; read-out: EC50 Values of Olive Oil Polyphenols
Experimental: (§1) The antiproliferative/cytotoxic effects of the selected OOPs on each cell line were assessed by measuring the cellular ATP levels after 72 h treatments using an ATP-based luminescence assay. This assay, initially developed as a tumor chemosensitivity assay, has shown considerable promise as a general in vitro toxicity assay due to its high sensitivity that allows the detection of a small number of cells. Consequently, it can be applied to both cancer cell lines and primary tissue cells. […] The EC50 values were calculated by nonlinear regression (curve fit) using a sigmoidal dose–response equation (Figure 2A and Figure S2).
(§2) The OOPs tested in this study were first dissolved in an appropriate DMSO volume such as to prepare a final stock solution of 50 mM, which was further used to prepare various compound concentrations in DMSO-based solutions. The final DMSO concentration in the cell culture was maintained constant in all treated groups of any given experiment and never exceeded the value of 0.2% (v/v). For the treatment experiments, cells were plated in 96-well culture plates, in 100 μL of complete medium at a seeding density of 5000–10,000 cells/well—depending on cells’ size and doubling time—and were allowed to adhere overnight (~16 h). The next day, 150 μL of complete medium was added to each well and the cells were treated with various concentrations of OOPs. Each concentration was tested in triplicate and was repeated 2–3 times. To prepare the final concentration solutions, 0.5 μL of a 500× stock of each tested compound in DMSO was added directly into each well in a final volume of 250 μL culture medium and was gently mixed by pipetting. Control wells were prepared under the same experimental conditions by adding only DMSO at a final concentration of 0.2% (v/v). Compounds were not renewed during the entire period of cell exposure. All cells were cultured at 37 °C in a 5% (v/v) CO2 for 24, 48 or 72 h.
(§3) Briefly, after the treatment with OOPs, the adapted medium was removed from the dish wells and the cells were washed twice with medium without FBS. Then, the C-lysis (LT27-076) was diluted in PBS (1:2) and a volume of 50 μL was added to each well. Cells were incubated with C-lysis for at least 10 min. Finally, an equal volume of lysed cells from each well and ATP monitoring reagent (AMR; LT27-212) was transferred to the wells of a white-walled illuminometer plate (Greiner bio-one; 655074). Cell viability was quantified by measuring luminescence using a multi-mode microplate reader Safire^2 Tecan (software Magellan V6.00 STD.2PC WIN.20000/XP).

[2] = test system: AGS; assay: Annexin V-FITC/PI staining, flow cytometry; assay type: cell-based, human; details: 48 h at EC50
Text: (§4) To discern whether cell death triggered by OOPs treatment occurred via apoptosis or necrosis under the experimental conditions applied in this study, live cells treated with OOPs were stained simultaneously with FITC-conjugated annexin V and propidium iodide (PI). Annexin V binds to phosphatidylserine (PS) translocating from the inner to the outer leaflet of the plasma membrane in apoptotic cells. Therefore, annexin V-FITC binding to PS labels live apoptotic cells with green FL. […] PS exposure to the extracellular space and cell membrane permeability were analyzed by flow cytometry as described in detail in the Experimental Section. […] OOP concentrations used were equal to the EC50 values for each cell line (Table 1). annexin V and PI staining discriminated between early- (i.e., annexin V +ve and PI −ve) and late-apoptotic cells (i.e., annexin V +ve and PI +ve), as well as between necrotic (i.e., annexin V −ve and PI +ve) and live (i.e., annexin V −ve and PI −ve) cells (Table 4).
(§5) Apoptosis and necrosis were assessed by double staining with annexin V-FITC and propidium iodide (PI) and were analyzed using flow cytometry (FACS). Human cancer cells were plated in 96-well culture plates in 100 μL of complete medium and were allowed to adhere overnight (~16 h). […] In detail, 0.5 μL of a 500× stock of each tested compound in DMSO was added directly into each well in a final volume of 250 μL culture medium and was gently mixed by pipetting. Control wells were prepared under the same experimental conditions by adding only DMSO at a final concentration of 0.2% (v/v). At the end of the treatment, the cells were detached by trypsinization, media with serum was added to deactivate trypsin, and the cells from three wells were pooled together by centrifugation (1000 rpm, 5 min, 24 °C), washed with cold PBS, centrifuged (1000 rpm, 5 min, 24 °C) and finally resuspended in cold 1× annexin V binding buffer (10 mM HEPES pH = 7.4, 150 mM NaCl, 2.5 mM CaCl2) at a density of 10^4 cells/mL. Staining was performed by incubating with annexin V- FITC and propidium iodide (PI; BioLegend) for 15 min at room temperature in the dark, according to the manufacturer’s instructions. Negative control samples consisted of cells treated only with 0.2% (v/v) DMSO for the same incubation time length (i.e., 48 h). Cells treated with Triton X-100 (0.25% (v/v)) for 5 min at 4 °C were used as controls for 100% permeabilization of the plasma membrane and maximum fluorescence staining with PI (positive control for cells in necrosis). The presence of live, apoptotic or necrotic cells was assessed with the FACS Calibur (Becton–Dickinson, San Jose, CA, USA). In total, 10,000 cells were analyzed per measurement and the acquired data were analyzed using the FlowJo V.10.0.8 software (Tree Star Inc., Ashland, OR, USA). Each condition was analyzed in duplicate, and the results presented are from 2 or 3 independent experiments.
(§6) Data showing OOPs’ apoptotic/necrotic effect were derived from two or three independent experiments and were presented as the means ± SE of the percentage (%) of both annexin V-positive cells (early apoptotic events) and % of annexin V/PI positive cells (late apoptotic events) over the whole cell population normalized to the corresponding events of the control cells, as determined using the FlowJo software.

[3] = test system: PANC-1; assay: Annexin V-FITC/PI staining, flow cytometry; assay type: cell-based, human; details: 48 h at EC50
Text: as §4, §5, §6

[4] = test system: SK-BR-3; assay: Annexin V-FITC/PI staining, flow cytometry; assay type: cell-based, human; details: 48 h at EC50
Text: as §4, §5, §6

[5] = test system: sixteen human cancer cell lines originating from eight different tissues; assay: ATP-based luminescence cell viability assay, whole panel; details: for EC50: 72 h treatment; for Bioactivity range on cancer cell lines (grade in words): Figure 3, sixteen cancer cell lines
Experimental: as §1, §2, §3

[6] = test system: MDA-MB 231; details: cited from earlier work
[7] = test system: H1299; assay: Annexin V-FITC/PI staining, flow cytometry; assay type: cell-based, human; details: 48 h at EC50
Text: as §4, §5, §6

[8] = Homo sapiens, range across cancer cell lines, read-out: EC50, range over the cancer cell lines

Row | Molecule | EC50 [1] [µM] | % Cell Viability [2] [%] | Early Apoptotic (% ± S.D.) [2] [%] | Late Apoptotic (% ± S.D.) [2] [%] | Total Apoptotic (%) [2] [%] | % Cell Viability [3] [%] | Early Apoptotic (% ± S.D.) [3] [%] | Late Apoptotic (% ± S.D.) [3] | Total Apoptotic (%) [3] [%] | % Cell Viability [4] [%] | Early Apoptotic (% ± S.D.) [4] [%] | Late Apoptotic (% ± S.D.) [4] | Total Apoptotic (%) [4] [%] | Bioactivity range on cancer cell lines (grade in words) [5] | % Cell Viability [7] [%] | Early Apoptotic (% ± S.D.) [7] [%] | Late Apoptotic (% ± S.D.) [7] [%] | Total Apoptotic (%) [7] [%] | EC50 [5, 8] [µM] | also measured
1 | ligstroside aglycone [4a,b] | 46.5 ± 5 | 36 | 16.03 ± 0.8 | 7.77 ± 1.8 | 23.79 ± 2.6 | 34 | 12.37 ± 2.7 | 4.42 ± 0.4% | 16.78 ± 3.1 | 87 | 1.30 ± 0.3 | No L.A. | 1.30 ± 0.3 | Very strong activity on lung cancer cell lines |  |  |  |  |  | EC50 ([5]; range across cancer cell lines, read-out: EC50, range over the cancer cell lines): 11.6 to 98.2 µM; EC50 ([6]; 48 h treatment, ref Busnena et al. (2013) 23): ~80 µM
2 | COC(=O)C1=COC(C)[C@@H](C=O)[C@@H]1CC(=O)OCCc1ccc(O)c(O)c1 (mixture of isomers) [3a,b, oleuropein aglycone] | 42.7 ± 0.5 | 31 | 19.40 ± 0.6 | 8.08 ± 2.0 | 27.48 ± 1.4 | 40 | 8.52 ± 2.3 | 3.01 ± 2.0% | 11.52 ± 4.3 | 59 | 7.63 ± 1.9 | No L.A. | 7.63 ± 1.9 | Very strong activity on 7/16 cancer cell lines | 40 | 9.14 ± 3.1 | 5.44 ± 2.2 | 14.58 ± 5.3 | 11.9 to 50.1 | EC50 ([6]; ref Mazzei et al. (2020) 27): 53 µM
3 | C/C=C(/C=O)[C@@H](CC=O)CC(=O)OCCc1ccc(O)c(O)c1 [compound 2, oleacein] | 49 ± 1.2 | 41 | 10.00 ± 1.3 | 4.55 ± 1.8 | 14.55 ± 3.1 | 58 | 4.39 ± 1.8 | No L.A. | 4.39 ± 1.8 | 60 | 5.78 ± 0.9 | No L.A. | 5.78 ± 0.9 | Good/moderate activity on 9/16 cancer cell lines | 40 | 5.96 ± 1.6 | 3.07 ± 1.8 | 9.03 ± 0.2 | > 25 | 
4 | C/C=C(/C=O)[C@@H](CC=O)CC(=O)OCCc1ccc(O)cc1 [compound 1, oleocanthal] | 24.7 ± 0.4 | 33 | 18.42 ± 4.4 | 4.94 ± 3.1 | 23.36 ± 1.4 | 60 | 4.47 ± 0.8 | No L.A. | 4.47 ± 0.8 | 59 | 7.45 ± 4.4 | 1.26 ± 0.7% | 8.71 ± 5.1 | Very strong activity on 10/16 cancer cell lines | 57 | 4.77 ± 0.9 | 7.27 ± 0.2 |  | 9.1 to 44.6 | EC50 ([5]; Homo sapiens, most cancer cell lines, read-out: EC50 in most cancer cell lines): 9 to 20 µM; EC50 ([6]; 48 or 72 h, different culture conditions): 10 to 18.5 µM
